Test in all cases: Cytostatic cell culture assay (GI50), SRB
Holding throughout (assay type): cell-based

The subject of assay [1] is HCT-15. To be noted: Homo sapiens, HCT-15, 120 h; 5 days incubation. The text has this: (§1) The assay is based on quantification of cell counts by a colorimetric detection of the cell associated proteins. The assay relies on the ability of sulforhodamine B (SRB) to bind to protein components of cells that have been fixed to tissue-culture plates by trichloroacetic acid (TCA). SRB is a bright-pink aminoxanthene dye with two sulfonic groups that bind to basic amino-acid residues under mild acidic conditions, and dissociate under basic conditions. As the binding of SRB is stoichiometric, the amount of dye extracted from stained cells is directly proportional to the cell mass.
(§2) Cell lines: All cell lines were obtained from ATCC (Manassas, Va.). Cultivation media containing Glutamax, and trypsin were purchased from Invitrogen (Carlsbad, Calif.). Doxorubicin, Clofarabine, TCA and SRB were from Sigma-Aldrich (St. Louis, Mo.). Gemcitabine was obtained from Moravek Biochemicals (Brea, Calif.)
(§3) • 1. Trypsinize the sub-confluent cells, count them, and adjust the cell concentrations according to the cell counts listed in Table 1. • 2. Distribute the cells into the 96-well plates in 150 μL of media. Incubate the plates overnight in humidified CO2 incubator at 37° C. • 3. Fix one plate of each cell line with TCA. Discard the cultivation media from the plates by flicking them gently and add 100 ul cold 10% (vol/vol) TCA to each well. Incubate the plates at 4 degree refrigerator for 1 hour. Discard TCA from the plates by flicking them gently. Rinse plates four times in a washing basin containing tap water. Store the plates at room temperature. These plates represent cell counts on day zero. • 4. Prepare a set of medium solutions containing various concentrations of tested compounds by making 5-fold serial dilutions in 96-well plate. Add 50 μL of the diluted compounds per well. Include controls with untreated cells and cells treated with doxorubicin, clofarabine and gemcitabine. • 5. Incubate the plates for 5 days at 37° C. • 6. Fix the plates with TCA. Discard the cultivation media from the plates by flicking them gently and add 100 ul cold 10% (vol/vol) TCA to each well. Incubate the plates at 4 degree refrigerator for 1 hour. Discard TCA from the plates by flicking them gently. Rinse plates four times in a washing basin containing tap water. • 7. Remove excess water by tapping the plates face down, gently on a paper towel. Allow the plates to air-dry at room temperature. • 8. Add 100 ul of 0.057% SRB solution in 1% (vol/vol) acetic acid to each well of the plates fixed with TCA on day zero and five. Leave at room temperature for 30 minutes. • 9. Flick the plates gently to discard SRB. Rinse the plates four times with 1% (vol/vol) Acetic Acid. • 10. Store the plates at 37 degree incubator to facilitate faster drying. • 11. Once the plates are completely dry, add 200 ul of 10 mM Tris base solution (pH 10.5) to each well. Leave at room temperature for 30 minutes for SRB to solubilize. • 12. Measure the OD at 500 nm in a microplate reader • 13. Calculate the percentage of cell-growth inhibition using the next formula: % of control cell growth=100×(ODsample−mean ODday0)/(ODneg control−mean ODday0)
(§4) For GI50 determination, plot a dose-response curve between the compound concentration and percent of growth inhibition. GI50 values can be derived by fitting dose-response curves using sigmoidal dose response equation.

The test system of assay [2] is NCI-H23. To be noted: Homo sapiens, NCI-H23, 120 h; 5 days incubation.
Source text: as §1, §2, §3, §4

For assay [3], the system named is HCT-116. To be noted: Homo sapiens, HCT-116, 120 h; 5 days incubation.
Source text: as §1, §2, §3, §4

Assay [4] deals with PC3. To be noted: Homo sapiens, PC-3, 120 h; 5 days incubation.
Source text: as §1, §2, §3, §4

Assay [5] has as its system A549. The following applies: Homo sapiens, A549, 120 h; 5 days incubation.
Source text: as §1, §2, §3, §4

Assay [6] has as its system BT-549. The following applies: Homo sapiens, BT-549, 120 h; 5 days incubation.
Source text: as §1, §2, §3, §4

Assay [7] has as its system Hs-578. The following applies: Hs578, 120 h; 5 days incubation.
Source text: as §1, §2, §3, §4

The subject of assay [8] is Du-145. To be noted: Homo sapiens, DU-145, 120 h; 5 days incubation.
Source text: as §1, §2, §3, §4

SMILES strings stand for the structures. Bounds are passed on as bounds.

The term GI50 denotes the concentration giving 50% growth inhibition. `COc1nc(N)nc2c1ncn2CCOCP(=O)(N[C@@H](C)C(=O)OC(C)C)N[C@@H](C)C(=O)OC(C)C` [Example 29]: the GI50 was > 10 µM in assay [1]; 0.032 µM in assay [2]; 0.988 µM in assay [3]; 0.325 µM in assay [4]; 0.387 µM in assay [5]; 1.11 µM in assay [6]. Besides, the GI50 was 0.378 µM in assay [7] and 0.029 µM in assay [8].

As to `CCOC(=O)[C@H](Cc1ccccc1)NP(=O)(COCCn1cnc2c(OC)nc(N)nc21)N[C@@H](Cc1ccccc1)C(=O)OCC` [Example 30], the GI50 came to 1.9 µM in assay [1]; 0.01 µM in assay [2]; 0.027 µM in assay [3]; 0.103 µM in assay [4]; 0.036 µM in assay [5]; 0.023 µM in assay [6]. Besides, the GI50 in assay [7] turned out to be 0.017 µM; in assay [8] it was 0.003 µM.

Turning to `CCCCOC(=O)[C@H](Cc1ccccc1)NP(=O)(COCCn1cnc2c(OC)nc(N)nc21)N[C@@H](Cc1ccccc1)C(=O)OCCCC` [Example 31], the GI50 in assay [1] is 0.604 µM; in assay [2] it was 0.002 µM; in assay [3], 0.006 µM; in assay [4], 0.016 µM; in assay [5], 0.006 µM; in assay [6], 0.02 µM. For the same compound, the figures for the GI50 in assay [7] and in assay [8] were 0.005 µM and 0.001 µM, respectively.

With `COC(=O)[C@@H](C)NP(=O)(COCCn1cnc2c(OC)nc(N)nc21)N[C@H](C)C(=O)OC` [Example 32], the GI50 in assay [1] is > 10 µM; in assay [2], 2.62 µM; in assay [3], 22 µM; in assay [4], 8 µM; in assay [5] it was 11 µM; in assay [6], > 10 µM. Also, the GI50 in assay [7] is 6.6 µM; in assay [8] it was 1.49 µM.

As to `CCOC(=O)[C@H](C)NP(=O)(COCCn1cnc2c(OC(C)C)nc(N)nc21)N[C@@H](C)C(=O)OCC` [Example 33], the GI50 is > 10 µM in assay [1]; 0.019 µM in assay [2]; 0.652 µM in assay [3]; 0.19 µM in assay [4]; 0.762 µM in assay [5]; 0.423 µM in assay [6]. The GI50 was 0.243 µM in assay [7] and 0.018 µM in assay [8].

Take `CCCCOC(=O)[C@H](C)NP(=O)(COCCn1cnc2c(OC(C)C)nc(N)nc21)N[C@@H](C)C(=O)OCCCC` [Example 34]: the concentration for 50% growth inhibition (GI50) worked out at 2.65 µM in assay [1]; 0.005 µM in assay [2]; 0.055 µM in assay [3]; 0.021 µM in assay [4]; 0.041 µM in assay [5]; 0.195 µM in assay [6]. In addition, the GI50 in assay [7] was 0.031 µM; in assay [8], 0.004 µM.

On to `CCCCOc1nc(N)nc2c1ncn2CCOCP(=O)(N[C@@H](C)C(=O)OCC)N[C@@H](C)C(=O)OCC` [Example 35], for which the GI50 came to 8.9 µM in assay [1]; 0.014 µM in assay [2]; 0.14 µM in assay [3]; 0.028 µM in assay [4]; 0.187 µM in assay [5]; 0.145 µM in assay [6]. The 50% growth inhibitory concentration (GI50) in assay [7] was 0.046 µM; in assay [8] it was 0.005 µM.

As to `CCOC(=O)[C@H](C)NP(=O)(COCCn1cnc2c(OCC)nc(N)nc21)N[C@@H](C)C(=O)OCC` [Example 37], the GI50 is > 10 µM in assay [1]; 0.031 µM in assay [2]; 0.509 µM in assay [3]; 0.146 µM in assay [4]; 0.458 µM in assay [5]; 0.292 µM in assay [6]. Moreover, the GI50 in assay [7] came out at 0.198 µM; in assay [8], 0.023 µM.

With `CCCCOC(=O)[C@H](C)NP(=O)(COCCn1cnc2c(OCC)nc(N)nc21)N[C@@H](C)C(=O)OCCCC` [Example 38], the concentration for 50% growth inhibition (GI50) in assay [1] was 0.799 µM; in assay [2], 0.002 µM; in assay [3] it was 0.012 µM; in assay [4], 0.002 µM; in assay [5], 0.017 µM; in assay [6], 0.053 µM. Besides, the GI50 turned out to be 0.02 µM in assay [7] and 0.001 µM in assay [8].

With `CCOC(=O)[C@H](C)NP(=O)(COCCn1cnc2c(OC3CCCCC3)nc(N)nc21)N[C@@H](C)C(=O)OCC` [Example 39], the GI50 is > 10 µM in assay [1]; 0.198 µM in assay [2]; 1.48 µM in assay [3]; 0.141 µM in assay [4]; 3.19 µM in assay [5]; 2.65 µM in assay [6]. The values for the GI50 in assay [7] and in assay [8] were 0.697 µM and 0.102 µM, respectively.

Take `CCOC(=O)[C@@H]1CCCN1P(=O)(COCCn1cnc2c(OC3CCCCC3)nc(N)nc21)N1CCC[C@H]1C(=O)OCC` [Example 40]: the GI50 was > 10 µM in assay [1]; 0.252 µM in assay [2]; 2.44 µM in assay [3]; 0.109 µM in assay [4]; 8.8 µM in assay [5]; 1.78 µM in assay [6]. Besides, the GI50 turned out to be 0.276 µM in assay [7] and 0.074 µM in assay [8].

Take `CCCCCOc1nc(N)nc2c1ncn2CCOCP(=O)(N[C@@H](C)C(=O)OCC)N[C@@H](C)C(=O)OCC` [Example 41]: the GI50 came out at 6.4 µM in assay [1]; 0.011 µM in assay [2]; 0.133 µM in assay [3]; 0.01 µM in assay [4]; 0.195 µM in assay [5]; 0.301 µM in assay [6]. The GI50 worked out at 0.062 µM in assay [7] and 0.001 µM in assay [8].

With `CCOC(=O)[C@H](C)NP(=O)(COCCn1cnc2c(OC3CC3)nc(N)nc21)N[C@@H](C)C(=O)OCC` [Example 42], the 50% growth inhibitory concentration (GI50) in assay [1] was found to be 10 µM; in assay [2], 0.015 µM; in assay [3] it was 0.43 µM; in assay [4], 0.237 µM; in assay [5] it was 1.71 µM; in assay [6] it was 0.104 µM. In addition, the GI50 in assay [7] came out at 0.162 µM; in assay [8] it was 0.01 µM.

For the compound `CCOC(=O)[C@@H]1CCCC1P(=O)(COCCn1cnc2c(OC3CC3)nc(N)nc21)N1CCC[C@H]1C(=O)OCC` (stereo partly shown) [Example 44], the GI50 in assay [1] is 9.1 µM; in assay [2], 0.227 µM; in assay [3], 0.154 µM; in assay [4], 0.183 µM; in assay [5], 1.25 µM; in assay [6], 0.016 µM. Moreover, the GI50 in assay [7] is 0.026 µM; in assay [8] it was 0.003 µM.

`CCOC(=O)[C@H](C)NP(=O)(COCCn1cnc2c(OC3CCC3)nc(N)nc21)N[C@@H](C)C(=O)OCC` [Example 45]: the GI50 in assay [1] was found to be 8.3 µM; in assay [2], 0.022 µM; in assay [3], 0.372 µM; in assay [4], 0.113 µM; in assay [5], 0.451 µM; in assay [6], 0.269 µM. Also, the GI50 in assay [7] came to 0.174 µM; in assay [8] it was 0.008 µM.

Consider `CCOC(=O)[C@H](C)NP(=O)(COCCn1cnc2c(OC3CCCC3)nc(N)nc21)N[C@@H](C)C(=O)OCC` [Example 46], for which the GI50 in assay [1] was 6.3 µM; in assay [2] it was 0.023 µM; in assay [3] it was 0.269 µM; in assay [4], 0.085 µM; in assay [5] it was 0.474 µM; in assay [6] it was 0.286 µM. For the same compound, the GI50 in assay [7] is 0.096 µM; in assay [8], 0.017 µM.

Take `CCCCOC(=O)[C@H](C)NP(=O)(COCCn1cnc2c(OC3CCCC3)nc(N)nc21)N[C@@H](C)C(=O)OCCCC` [Example 47]: the GI50 was determined as 1.81 µM in assay [1]; 0.004 µM in assay [2]; 0.055 µM in assay [3]; 0.008 µM in assay [4]; 0.103 µM in assay [5]; 0.326 µM in assay [6]. The results for the GI50 in assay [7] and in assay [8] were 0.05 µM and 0.001 µM, respectively.

For the origin of these results see patent US8163718B2, “Nucleoside analogues containing phosphonate or phosphonamide groups” (Gilead Sciences, Inc., priority 2008, dated 2012).
